“And” between values parts separate entries of the source, which are not always exact repeats. Equal entries are not always repeated. Inconclusive results and toxic doses are left out. Rule as the data show it: active = T/C of 150% or more; inactive = T/C below 125%.
System: L1210 leukemia ip in BDF1 mice, survival T/C
Assay: NCI In Vivo Anticancer Drug Screen. Data for tumor model L1210 Leukemia (intraperitoneal) in B6D2F1 (BDF1) mice
Details: endpoint: mean survival time, higher = longer survival
Summary of the method: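 Ratio derived from survival: compound-dosed mice over vehicle-dosed mice, all bearing a transplantable tumor.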

[1] = dose: 50.0 mg/kg/injection, schedule: Q01DX001 (ip), vehicle: carboxymethylcellulose (CMC)
[2] = dose: 100.0 mg/kg/injection, schedule: Q01DX001 (ip), vehicle: carboxymethylcellulose (CMC)
[3] = dose: 400.0 mg/kg/injection, schedule: Q01DX001 (ip), vehicle: carboxymethylcellulose (CMC)
[4] = dose: 100.0 mg/kg/injection, schedule: Q04DX003 (ip), vehicle: saline
[5] = dose: 200.0 mg/kg/injection, schedule: Q04DX003 (ip), vehicle: saline
[6] = dose: 400.0 mg/kg/injection, schedule: Q04DX003 (ip), vehicle: saline
[7] = dose: 100.0 mg/kg/injection, schedule: Q04DX003 (ip), vehicle: Klucel (hydroxypropylcellulose) (HPC)
[8] = dose: 100.0 mg/kg/injection, schedule: Q04DX003 (ip), vehicle: saline with Tween-80
[9] = dose: 200.0 mg/kg/injection, schedule: Q04DX003 (ip), vehicle: saline with Tween-80
[10] = dose: 400.0 mg/kg/injection, schedule: Q04DX003 (ip), vehicle: saline with Tween-80
[11] = dose: 200.0 mg/kg/injection, schedule: Q01DX001 (ip), vehicle: carboxymethylcellulose (CMC)
[12] = dose: 25.0 mg/kg/injection, schedule: Q04DX003 (ip), vehicle: Klucel (hydroxypropylcellulose) (HPC)
[13] = dose: 100.0 mg/kg/injection, schedule: Q01DX009 (ip), vehicle: saline with Tween-80
[14] = dose: 200.0 mg/kg/injection, schedule: Q01DX009 (ip), vehicle: saline with Tween-80
[15] = dose: 10.0 mg/kg/injection, schedule: Q01DX001 (ip), vehicle: saline
[16] = dose: 20.0 mg/kg/injection, schedule: Q01DX001 (ip), vehicle: saline
[17] = dose: 100.0 mg/kg/injection, schedule: Q01DX001 (ip), vehicle: saline
[18] = dose: 200.0 mg/kg/injection, schedule: Q01DX001 (ip), vehicle: saline
[19] = dose: 400.0 mg/kg/injection, schedule: Q01DX001 (ip), vehicle: saline

Measured: T/C

N#CC1(Nc2ccc(-c3ccc(NC4(C#N)CCCC4)cc3)cc2)CCCC1
inactive: [1] 90 % of control | [2] 95 % of control | [3] 88 % of control

CC12CCC(=O)C=C1CCC1C2C(=O)CC2(C)C1CCC2(O)C(=O)COC(=O)c1cc([N+](=O)[O-])c(N2CC2)c([N+](=O)[O-])c1 (centres undefined)
inactive: dose: 50.0 mg/kg/injection, schedule: Q01DX001 (sc), vehicle: steriod suspending solution 103 % of control | dose: 60.0 mg/kg/injection, schedule: Q01DX015 (ip), vehicle: saline 96 % of control | dose: 90.0 mg/kg/injection, schedule: Q01DX015 (ip), vehicle: saline 100 % of control | dose: 100.0 mg/kg/injection, schedule: Q01DX001 (sc), vehicle: steriod suspending solution 95 % of control | dose: 135.0 mg/kg/injection, schedule: Q01DX015 (ip), vehicle: saline 102 % of control | dose: 200.0 mg/kg/injection, schedule: Q01DX001 (sc), vehicle: steriod suspending solution 101 % of control | dose: 200.0 mg/kg/injection, schedule: Q01DX015 (ip), vehicle: saline 96 % of control | dose: 400.0 mg/kg/injection, schedule: Q01DX001 (sc), vehicle: steriod suspending solution 103 % of control

CCOC(=O)/C(C)=N/Nc1nn[nH]n1
inactive: [4] 99 % of control | [5] 99 % of control | [6] 86 % of control

O=C1c2ccccc2C2(c3ccccc3)C=NNC12c1ccccc1 (centres undefined)
inactive: dose: 100.0 mg/kg/injection, schedule: Q01DX001 (ip), vehicle: Klucel (hydroxypropylcellulose) (HPC) 103 % of control | [7] 106 % of control | dose: 200.0 mg/kg/injection, schedule: Q01DX001 (ip), vehicle: Klucel (hydroxypropylcellulose) (HPC) 98 % of control | dose: 200.0 mg/kg/injection, schedule: Q04DX003 (ip), vehicle: Klucel (hydroxypropylcellulose) (HPC) 97 % of control | dose: 400.0 mg/kg/injection, schedule: Q01DX001 (ip), vehicle: Klucel (hydroxypropylcellulose) (HPC) 95 % of control | dose: 400.0 mg/kg/injection, schedule: Q04DX003 (ip), vehicle: Klucel (hydroxypropylcellulose) (HPC) 103 % of control

Cc1ccc(OCC(O)CN2CCN(c3ccc(Cl)cc3)CC2)cc1 (centres undefined)
inactive: dose: 63.0 mg/kg/injection, schedule: Q01DX015 (ip), vehicle: carboxymethylcellulose (CMC) 95 % of control | [8] 91 % of control | dose: 125.0 mg/kg/injection, schedule: Q01DX015 (ip), vehicle: carboxymethylcellulose (CMC) 95 % of control | [9] 94 % of control | dose: 250.0 mg/kg/injection, schedule: Q01DX015 (ip), vehicle: carboxymethylcellulose (CMC) 95 % of control | [10] 89 % of control | dose: 500.0 mg/kg/injection, schedule: Q01DX015 (ip), vehicle: carboxymethylcellulose (CMC) 91 % of control | dose: 1000.0 mg/kg/injection, schedule: Q01DX015 (ip), vehicle: carboxymethylcellulose (CMC) 95 % of control

CCCCCCC(CCCCCC)CC1CCCC1
inactive: dose: 50.0 mg/kg/injection, schedule: Q04DX002 (sc), vehicle: olive oil, sesame oil, peanut oil 103 % of control | dose: 100.0 mg/kg/injection, schedule: Q04DX002 (sc), vehicle: olive oil, sesame oil, peanut oil 97 % of control | dose: 200.0 mg/kg/injection, schedule: Q04DX002 (sc), vehicle: olive oil, sesame oil, peanut oil 97 % of control

CCOC(=O)CCCNc1ccccc1C(=O)OC
inactive: [2] 110 % of control | [11] 107 % of control | [3] 107 % of control

Nc1ccc([N+](=O)[O-])cc1[N+](=O)[O-]
inactive: [12] 103 % of control | dose: 50.0 mg/kg/injection, schedule: Q04DX003 (ip), vehicle: Klucel (hydroxypropylcellulose) (HPC) 98 % of control | [7] 95 % of control and 105 % of control

CC(=O)N(C(C)=O)c1ccc(N=Nc2ccccc2C)cc1C
inactive: dose: 50.0 mg/kg/injection, schedule: Q01DX009 (ip), vehicle: saline with Tween-80 94 % of control | [13] 86 % of control | [4] 94 % of control | [14] 106 % of control | [5] 94 % of control | [6] 92 % of control

CCCCCCCC(CCCCCC)CCCCCCC
inactive: dose: 50.0 mg/kg/injection, schedule: Q04DX002 (ip), vehicle: saline with Tween-80 89 % of control | dose: 100.0 mg/kg/injection, schedule: Q04DX002 (ip), vehicle: saline with Tween-80 110 % of control | dose: 200.0 mg/kg/injection, schedule: Q04DX002 (ip), vehicle: saline with Tween-80 103 % of control | dose: 400.0 mg/kg/injection, schedule: Q04DX002 (ip), vehicle: saline with Tween-80 106 % of control

NS(=O)(=O)c1c[nH]c(=O)[nH]c1=O
inactive: [4] 104 % of control | [5] 102 % of control | [6] 102 % of control

CC(C)[N+]1=C(/C=C/c2ccc3cccnc3c2O)C(C)(C)c2ccccc21
inactive: [1] 97 % of control | [2] 103 % of control | [11] 95 % of control | [3] 95 % of control

C=CC(=O)O
inactive: dose: 0.5 mg/kg/injection, schedule: Q01DX009 (ip), vehicle: saline 101 % of control | dose: 1.0 mg/kg/injection, schedule: Q01DX009 (ip), vehicle: saline 101 % of control | dose: 1.56 mg/kg/injection, schedule: Q01DX009 (ip), vehicle: acetone 104 % of control | dose: 2.0 mg/kg/injection, schedule: Q01DX009 (ip), vehicle: saline 108 % of control | dose: 3.12 mg/kg/injection, schedule: Q01DX009 (ip), vehicle: acetone 102 % of control | dose: 4.0 mg/kg/injection, schedule: Q01DX009 (ip), vehicle: saline 116 % of control | dose: 5.0 mg/kg/injection, schedule: Q01DX001 (ip), vehicle: saline 102 % of control and 93 % of control | dose: 6.25 mg/kg/injection, schedule: Q01DX009 (ip), vehicle: acetone 88 % of control | [15] 108 % of control and 100 % of control | [16] 101 % of control | [12] 90 % of control | [1] 88 % of control and 106 % of control | dose: 50.0 mg/kg/injection, schedule: Q01DX001 (ip), vehicle: saline 95 % of control | [2] 86 % of control and 95 % of control | [17] 90 % of control and 88 % of control | [7] 89 % of control | [11] 93 % of control and 101 % of control | [18] 93 % of control and 88 % of control | [9] 87 % of control | [3] 88 % of control and 106 % of control | [19] 101 % of control and 95 % of control and 102 % of control | dose: 320.0 micrograms/kg/injection, schedule: Q01DX009 (ip), vehicle: saline 96 % of control | dose: 480.0 micrograms/kg/injection, schedule: Q01DX009 (ip), vehicle: saline 102 % of control | dose: 730.0 micrograms/kg/injection, schedule: Q01DX009 (ip), vehicle: saline 106 % of control | dose: 1100.0 micrograms/kg/injection, schedule: Q01DX009 (ip), vehicle: saline 107 % of control

O=C(CSc1cc(-c2ccc(Cl)cc2)s[s+]1)c1ccccc1
inactive: [13] 100 % of control | [8] 93 % of control | [14] 97 % of control | [9] 96 % of control | dose: 400.0 mg/kg/injection, schedule: Q01DX009 (ip), vehicle: saline with Tween-80 103 % of control | [10] 100 % of control

c1ccc2c(c1)ccc1c[n+]3c4ccccc4ccc3n12
inactive: dose: 0.62 mg/kg/injection, schedule: Q01DX009 (ip), vehicle: saline 105 % of control | dose: 1.25 mg/kg/injection, schedule: Q01DX009 (ip), vehicle: saline 113 % of control | dose: 2.5 mg/kg/injection, schedule: Q01DX009 (ip), vehicle: saline 123 % of control | dose: 5.0 mg/kg/injection, schedule: Q04DX003 (ip), vehicle: saline 106 % of control | [15] 109 % of control | [16] 105 % of control

Cc1[nH]c2c(O)ccc(O)c2c1C
inactive: [17] 106 % of control | [18] 97 % of control | [19] 106 % of control

O=P(Oc1ccccc1)(N1CCCC1)N1CCCC1
inactive: dose: 50.0 mg/kg/injection, schedule: Q01DX009 (ip), vehicle: saline 100 % of control | dose: 100.0 mg/kg/injection, schedule: Q01DX009 (ip), vehicle: saline 91 % of control | dose: 100.0 mg/kg/injection, schedule: Q04DX002 (ip), vehicle: saline 100 % of control | dose: 200.0 mg/kg/injection, schedule: Q01DX009 (ip), vehicle: saline 98 % of control | dose: 200.0 mg/kg/injection, schedule: Q04DX002 (ip), vehicle: saline 95 % of control
